Laboratory results taken from the NIST ThermoML archive (doi:10.1016/j.jct.2016.11.003).
Numbers after ± are expanded uncertainties. One block for each compound: values may come before it.

Assays:
[1] = xn = mol fraction of the nth substance listed; details: 298 K, Crystal, X-ray diffraction
[2] = excess molar enthalpy (molar enthalpy of mixing); xn = mol fraction of the nth substance listed; details: 298 K, 100 kPa, Crystal, Calvet calorimetry
[3] = 298 K; 101 kPa; Crystal; X-ray diffraction

SMILES: O=P([O-])([O-])[O-].[Gd+3] [gadolinium orthophosphate] + O=P([O-])([O-])[O-].[La+3]
excess molar enthalpy ([2]; x1 = 0.24): 1.15 ± 1.2 kJ/mol
excess molar enthalpy ([2]; x1 = 0.44): 3.25 ± 1.2 kJ/mol
excess molar enthalpy ([2]; x1 = 0.55): 2.95 ± 1.3 kJ/mol
excess molar enthalpy ([2]; x1 = 0.76): 2.18 ± 1 kJ/mol
mass density ([1]; 100 kPa, x1 = 0.11): 5160 ± 30 kg/m3
mass density ([1]; 100 kPa, x1 = 0.24): 5260 ± 30 kg/m3
mass density ([1]; 100 kPa, x1 = 0.34): 5340 ± 30 kg/m3
mass density ([1]; 100 kPa, x1 = 0.44): 5440 ± 40 kg/m3
mass density ([1]; 100 kPa, x1 = 0.55): 5540 ± 30 kg/m3
mass density ([1]; 100 kPa, x1 = 0.64): 5630 ± 30 kg/m3
mass density ([1]; 100 kPa, x1 = 0.76): 5740 ± 40 kg/m3
mass density ([1]; 100 kPa, x1 = 0.84): 5820 ± 40 kg/m3
mass density ([1]; 100 kPa, x1 = 0.92): 5900 ± 40 kg/m3
mass density ([1]; 100 kPa, x1 = 1): 5980 ± 40 kg/m3

SMILES: O=P([O-])([O-])[O-].[Eu+3] [europium phosphate] + O=P([O-])([O-])[O-].[La+3]
excess molar enthalpy ([2]; x1 = 0.1): 1.89 ± 1.8 kJ/mol
excess molar enthalpy ([2]; x1 = 0.11): 0.98 ± 1.6 kJ/mol
excess molar enthalpy ([2]; x1 = 0.34): 0.54 ± 1.3 kJ/mol
excess molar enthalpy ([2]; x1 = 0.58): 0.85 ± 1.4 kJ/mol
excess molar enthalpy ([2]; x1 = 0.71): 0.2 ± 1.1 kJ/mol
mass density ([1]; 101 kPa, x1 = 0.11): 5130 ± 30 kg/m3
mass density ([1]; 101 kPa, x1 = 0.23): 5210 ± 30 kg/m3
mass density ([1]; 101 kPa, x1 = 0.4): 5340 ± 30 kg/m3
mass density ([1]; 101 kPa, x1 = 0.58): 5470 ± 30 kg/m3
mass density ([1]; 101 kPa, x1 = 0.71): 5570 ± 30 kg/m3
mass density ([1]; 101 kPa, x1 = 0.82): 5660 ± 30 kg/m3
mass density ([1]; 101 kPa, x1 = 0.91): 5730 ± 30 kg/m3
mass density ([1]; 101 kPa, x1 = 1): 5810 ± 40 kg/m3

SMILES: O=P([O-])([O-])[O-].[Gd+3] [gadolinium orthophosphate]
mass density [3]: 5980 ± 40 kg/m3

SMILES: O=P([O-])([O-])[O-].[Eu+3] [europium phosphate]
mass density [3]: 5810 ± 40 kg/m3

Now from value to compound:

mass density ([1]; 100 kPa, x2 = 0): 5060 ± 30 kg/m3
SMILES: O=P([O-])([O-])[O-].[La+3] [lanthanum orthophosphate] + O=P([O-])([O-])[O-].[Gd+3]

mass density ([1]; 101 kPa, x2 = 0): 5060 ± 30 kg/m3
SMILES: O=P([O-])([O-])[O-].[La+3] [lanthanum orthophosphate] + O=P([O-])([O-])[O-].[Eu+3]

mass density [3]: 5060 ± 30 kg/m3
SMILES: O=P([O-])([O-])[O-].[La+3] [lanthanum orthophosphate]
